Results reported in the NIST ThermoML archive (doi:10.1021/acs.jced.6b01043).

Assay: relative permittivity at zero frequency (dimensionless); xn = mol fraction of the nth substance listed
Conditions: Gas, Reentrant cavity resonator

[Ar] [argon] + O=C=O
Conditions	relative permittivity at zero frequency
255.1 K, 2068.9 kPa, x1 = 0.0505	1.02661
260.14 K, 2446.9 kPa, x1 = 0.0505	1.03197
266.15 K, 2919.5 kPa, x1 = 0.0505	1.03887
271.4 K, 3365.6 kPa, x1 = 0.0505	1.04566
273.2 K, 454.8 kPa, x1 = 0.2491	1.004
273.2 K, 962.7 kPa, x1 = 0.2491	1.0088
273.2 K, 1001.6 kPa, x1 = 0.2491	1.0091
273.2 K, 2004.3 kPa, x1 = 0.2491	1.0195
273.2 K, 2014.8 kPa, x1 = 0.2491	1.0196
273.2 K, 3008.7 kPa, x1 = 0.2491	1.0314
273.2 K, 4029 kPa, x1 = 0.2491	1.0459
273.2 K, 4487 kPa, x1 = 0.2491	1.0535
273.21 K, 506.6 kPa, x1 = 0.2491	1.0045
279.73 K, 4266.1 kPa, x1 = 0.0505	1.06129
279.73 K, 4267.8 kPa, x1 = 0.0505	1.06132
283.23 K, 492.8 kPa, x1 = 0.2491	1.0042
283.23 K, 969.4 kPa, x1 = 0.0505	1.00945
283.23 K, 4007.7 kPa, x1 = 0.0505	1.05273
283.23 K, 4493.9 kPa, x1 = 0.0505	1.06407
283.23 K, 6491.3 kPa, x1 = 0.2491	1.0858
283.24 K, 1029.9 kPa, x1 = 0.0505	1.01008
283.24 K, 2002 kPa, x1 = 0.2491	1.0185
283.24 K, 2006.1 kPa, x1 = 0.0505	1.0212
283.24 K, 2011.5 kPa, x1 = 0.0505	1.02127
283.24 K, 2992.8 kPa, x1 = 0.2491	1.0294
283.24 K, 2993.3 kPa, x1 = 0.2491	1.0294
283.24 K, 2998.2 kPa, x1 = 0.0505	1.03482
283.24 K, 3973.7 kPa, x1 = 0.0505	1.05203
283.24 K, 3995.6 kPa, x1 = 0.2491	1.042
283.24 K, 4006.4 kPa, x1 = 0.2491	1.0421
283.24 K, 4991.8 kPa, x1 = 0.2491	1.0568
283.24 K, 5983.5 kPa, x1 = 0.2491	1.0748
283.24 K, 5987 kPa, x1 = 0.2491	1.0749
283.25 K, 1008.9 kPa, x1 = 0.2491	1.0088
283.25 K, 2012.2 kPa, x1 = 0.2491	1.0186
283.44 K, 4710.8 kPa, x1 = 0.0505	1.06985
289.87 K, 5632 kPa, x1 = 0.0505	1.09119
292.67 K, 6086.3 kPa, x1 = 0.0505	1.10382
293.27 K, 1007.1 kPa, x1 = 0.2491	1.0085
293.27 K, 2005.7 kPa, x1 = 0.2491	1.0177
293.27 K, 3006.2 kPa, x1 = 0.2491	1.0279
293.27 K, 4006.6 kPa, x1 = 0.2491	1.0394
293.27 K, 4993.4 kPa, x1 = 0.2491	1.0523
293.27 K, 5847.6 kPa, x1 = 0.2491	1.0651
293.27 K, 6499.2 kPa, x1 = 0.2491	1.0761
293.28 K, 3999.6 kPa, x1 = 0.2491	1.0393
293.28 K, 5994.6 kPa, x1 = 0.2491	1.0674
294.27 K, 6419.2 kPa, x1 = 0.0505	1.11591
313.26 K, 2602.6 kPa, x1 = 0.0505	1.02461
313.26 K, 3052 kPa, x1 = 0.0505	1.02963
313.26 K, 3592.1 kPa, x1 = 0.0505	1.03607
313.28 K, 7083.6 kPa, x1 = 0.0505	1.0967
313.29 K, 4089.6 kPa, x1 = 0.0505	1.04247
313.3 K, 4550.7 kPa, x1 = 0.0505	1.04884
313.3 K, 5083 kPa, x1 = 0.0505	1.05688
313.3 K, 5566.4 kPa, x1 = 0.0505	1.06488
313.3 K, 6028.4 kPa, x1 = 0.0505	1.07333
313.3 K, 6550 kPa, x1 = 0.0505	1.08408
313.3 K, 7027.1 kPa, x1 = 0.0505	1.09523
